Earlier results as cited in patent publication US20090062282A1, “Substituted Amino-Pyrimidones and Uses Thereof” (AstraZeneca AB, priority 2004, published 2009).
Square brackets hold non-standard residues; d marks the D form. Peptide text beside a SMILES is read from it. * marks the point of attachment. Sta = CC(C)C[C@H](N)[C@@H](O)CC(=O)O; Isovaleryl = CC(C)CC(=O)*

Biological target: BACE (Homo sapiens, UniProt P56817)
Sequence (P56817 46-501): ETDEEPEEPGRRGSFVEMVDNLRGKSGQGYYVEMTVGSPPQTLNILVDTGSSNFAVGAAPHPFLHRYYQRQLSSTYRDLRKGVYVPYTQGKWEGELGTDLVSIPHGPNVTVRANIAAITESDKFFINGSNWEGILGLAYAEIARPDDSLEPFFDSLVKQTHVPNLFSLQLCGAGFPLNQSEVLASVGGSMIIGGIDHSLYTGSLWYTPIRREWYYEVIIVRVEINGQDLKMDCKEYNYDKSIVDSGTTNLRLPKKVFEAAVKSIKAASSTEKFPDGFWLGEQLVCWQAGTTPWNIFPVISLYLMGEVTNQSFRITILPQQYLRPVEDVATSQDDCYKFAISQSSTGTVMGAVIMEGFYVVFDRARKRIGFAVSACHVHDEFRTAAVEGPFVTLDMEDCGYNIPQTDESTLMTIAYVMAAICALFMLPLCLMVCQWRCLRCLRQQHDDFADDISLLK

inhibition of BACE: inhibited weakly
SMILES: CC(C)CC(=O)N[C@H](C(=O)N[C@H](C(=O)N[C@@H](CC(C)C)[C@@H](O)CC(=O)N[C@@H](C)C(=O)N[C@@H](CC(C)C)[C@@H](O)CC(=O)O)C(C)C)C(C)C [pepstatin] (Isovaleryl-VV[Sta]A[Sta]-OH)
